{"source": "paper PMC5260423", "about": "(Journal of Veterinary Internal Medicine, 2016)", "key": {"[1]": {"design": "species or system horses (Thoroughbreds)", "details": "in vivo"}, "[2]": {"type": "in vivo, dog", "details": "intravenous bolus 2 mg/kg; 2 dogs"}, "tubulin": {"tested_on": "tubulin", "type": "cell-based, dog"}, "[3]": {"tested_on": "canine glioblastoma J3T cells", "assay": "cells", "type": "cell-based, dog", "details": "Canis lupus familiaris, 72 h, read-out: mean IC50"}, "[4]": {"type": "in vivo, cat", "details": "cats with CHF that received pimobendan; −561 in cats that did not; P = 0.045"}, "[5]": {"details": "dog, in vivo; cited from earlier work"}, "[6]": {"tested_on": "Anaplasma phagocytophilum", "type": "in vivo, dog", "details": "all sarolaner‐treated dogs"}, "Borrelia burgdorferi": {"tested_on": "Borrelia burgdorferi", "type": "in vivo, dog", "details": "single oral dose; negative antibody, PCR, and culture"}, "Ixodes scapularis": {"tested_on": "Ixodes scapularis", "type": "in vivo, dog"}, "[7]": {"tested_on": "FOSCC cell lines (SCCF1, SCCF2, SCCF3)", "type": "cell-based, cat", "details": "MTT assay"}, "VEGF": {"tested_on": "VEGF", "type": "cell-based, cat"}, "Bcl11b": {"tested_on": "Bcl11b", "type": "cell-based, cat"}, "[8]": {"details": "in vivo; cited from earlier work"}, "[9]": {"type": "in vivo, dog"}}}
{"compound": "COc1ccc2[nH]c([S+]([O-])Cc3ncc(C)c(OC)c3C)nc2c1", "note": "(stereo not drawn) [OME, omeprazole]", "values": [{"measurement": "gastric ulcer scores", "setting": "[1]", "value": "significantly decreased"}]}
{"compound": "CCN(CC)CC(=O)Nc1c(C)cccc1C", "note": "[lidocaine]", "values": [{"measurement": "response of polymorphic ventricular tachycardia", "setting": "[2]", "value": "no improvement was found"}]}
{"compound": "COC(=O)Nc1nc2ccc(Sc3ccccc3)cc2[nH]1", "note": "[FBZ, fenbendazole]", "values": [{"measurement": "tubulin depolymerization versus untreated control", "setting": "tubulin", "value": "increased depolymerization of tubulin"}, {"measurement": "IC50", "setting": "[3]", "value": 550, "unit": "nM"}]}
{"compound": "COc1ccc(-c2nc3ccc(C4=NNC(=O)CC4C)cc3[nH]2)cc1", "note": "(stereo not drawn) [pimobendan]", "values": [{"measurement": "change in NT‐proBNP concentration from admission to discharge (median)", "setting": "[4]", "value": -821, "unit": "pmol/L"}]}
{"compound": "N.N.[Cl][Pt][Cl]", "note": "[cisplatin]", "values": [{"measurement": "reported MST for invasive thyroid carcinoma", "setting": "[5]", "value": 98, "unit": "days"}]}
{"compound": "CS(=O)(=O)CC(=O)N1CC2(C1)OCc1cc(C3=NO[C@@](c4cc(Cl)c(F)c(Cl)c4)(C(F)(F)F)C3)ccc12", "note": "[sarolaner]", "values": [{"measurement": "A. phagocytophilum antibody in treated dogs", "setting": "[6]", "value": "negative antibody"}, {"measurement": "transmission of B. burgdorferi to dogs infested 21 or 28 days after treatment", "setting": "Borrelia burgdorferi", "value": "prevented transmission"}, {"measurement": "percent reduction in mean live tick counts, Day 29, treated 28 days prior", "setting": "Ixodes scapularis; 2 mg/kg oral", "value": 90.9, "unit": "%"}, {"measurement": "percent reduction in mean live tick counts, Day 30, treated 21 days prior", "setting": "Ixodes scapularis; 2 mg/kg oral", "value": 100, "unit": "%"}, {"measurement": "percent reduction in mean live tick counts, Day 30, treated 28 days prior", "setting": "Ixodes scapularis; 2 mg/kg oral", "value": 97.1, "unit": "%"}, {"measurement": "percent reduction in mean live tick counts, Day 33, treated 21 days prior", "setting": "Ixodes scapularis; 2 mg/kg oral", "value": 100, "unit": "%"}, {"measurement": "percent reduction in mean live tick counts, Day 33, treated 28 days prior", "setting": "Ixodes scapularis; 2 mg/kg oral", "value": 100, "unit": "%"}, {"measurement": "adverse reactions to treatment", "setting": "Ixodes scapularis; dog, in vivo", "value": "no adverse reactions"}]}
{"compound": "Cc1nc(Nc2ncc(C(=O)Nc3c(C)cccc3Cl)s2)cc(N2CCN(CCO)CC2)n1", "note": "[Dasatinib, dasatinib]", "values": [{"measurement": "cell viability", "setting": "[7]", "value": "lowered cell viability"}, {"measurement": "VEGF production", "setting": "VEGF", "value": "suppressed VEGF production"}, {"measurement": "activation (phosphorylation) of Bcl11b", "setting": "Bcl11b", "value": "inhibited activation of Bcl11b"}]}
{"compound": "Darbepoetin alfa", "values": [{"measurement": "cats that responded, of 25", "setting": "[8]", "value": 14, "unit": "cats"}, {"measurement": "possible PRCA", "setting": "[9]; 1/34 dogs", "value": 2.9, "unit": "%"}, {"measurement": "dogs with potential adverse events", "setting": "[9]; dog, in vivo", "value": "19/34"}, {"measurement": "longest dosing interval at which a response was sustained", "setting": "[9]; dog, in vivo", "value": "≤ 21", "unit": "days"}, {"measurement": "responders (HCT of 30% achieved)", "setting": "[9]; median starting dose 0.5 mcg/kg, every 7 days in 31/34 dogs", "value": "Twenty‐nine of 34 dogs were responders"}, {"measurement": "median time to response", "setting": "[9]; range 6 ‐ 106", "value": 28, "unit": "days"}, {"measurement": "median survival following initiation of therapy", "setting": "[9]; range 30 – 546", "value": 118, "unit": "days"}]}
